Assay: Western blot analysis for "B" compounds
Assay type: cell-based
Settings: read-out: Traditional Western Degradation Potency (DC50)
Description: Western Blot Analysis. Western blot analysis was performed essentially as described previously. The cells treated with indicated compounds were lysed in Radioimmunoprecipitation Assay Protein Lysis and Extraction Buffer (25 mmol/I. Tris.HCl, pH 7.6, 150 mmol/L, NaCl, 1% Nonidet P-40, 1% sodium deoxycholate, and 0.1% sodium dodecyl sulfate) containing proteinase inhibitor cocktail (Roche Diagnostics, Mannheim, Germany). Equal amounts of total protein were electrophoresed through 10% SDS-polyacrylamide gels after determination of protein concentration by BCA assay (Fisher Scientific, Pittsburgh, PA), The separated protein bands were transferred onto PVDF membranes (GE Healthcare Life Sciences, Marlborough, MA) and blotted against different antibodies, as indicated. The blots were scanned, and the band intensities were quantified using GelQuant.NET software provided by biochemlabsolutions.com. The relative mean intensity of target proteins was expressed after normalization to the intensity of glyceraldehyde-3-phosphate dehydrogenase bands.

Compound | DC50
O=C1CCC(N2C(=O)c3cc4c(cc3C2=O)CN(CC(=O)N2CC3(CCN(c5ccc([C@@H]6c7ccc(O)cc7CC[C@@H]6c6ccc(F)cc6)cc5)CC3)C2)C4)C(=O)N1 (mixture of isomers) [Compound B11, 2-(2,6-dioxopiperidin-3-yl)-6-(2-(7-(4-((1R,2S)-2-(4-fluorophenyl)-6-hydroxy-1,2,3,4-tetrahydronaphthalen-1-yl)phenyl)-2,7-diazaspiro[3.5]nonan-2-yl)-2-oxoethyl)-6,7-dihydropyrrolo[3,4-f]isoindole-1,3(2H,5H)-dione] | < 10 nM
O=C1CCC(N2C(=O)c3cc4c(cc3C2=O)CN(CC(=O)N2CCCC(Oc3ccc([C@@H]5c6ccc(O)cc6CC[C@@H]5c5ccccc5)cc3)C2)C4)C(=O)N1 (mixture of isomers) [Compound B13, 2-(2,6-dioxopiperidin-3-yl)-6-(2-(3-(4-((1R,2S)-6-hydroxy-2-phenyl-1,2,3,4-tetrahydronaphthalen-1-yl)phenoxy)piperidin-1-yl)-2-oxoethyl)-6,7-dihydropyrrolo[3,4-f]isoindole-1,3(2H,5H)-dione] | > 100 nM
O=C1CCC(N2C(=O)c3cc4c(cc3C2=O)CN(C2CC(C(=O)N3CCCC(Oc5ccc([C@@H]6c7ccc(O)cc7CC[C@@H]6c6ccccc6)cc5)C3)C2)C4)C(=O)N1 (mixture of isomers) [Compound B14, 2-(2,6-dioxopiperidin-3-yl)-6-(3-(3-(4-((1R,2S)-6-hydroxy-2-phenyl-1,2,3,4-tetrahydronaphthalen-1-yl)phenoxy)piperidine-1-carbonyl)cyclobutyl)-6,7-dihydropyrrolo[3,4-f]isoindole-1,3(2H,5H)-dione] | > 100 nM
O=C1CCC(N2C(=O)c3cc4c(cc3C2=O)CN(C2CCC(C(=O)N3CCCC(Oc5ccc([C@@H]6c7ccc(O)cc7CC[C@@H]6c6ccccc6)cc5)C3)CC2)C4)C(=O)N1 (mixture of isomers) [Compound B15, 2-(2,6-dioxopiperidin-3-yl)-6-(4-(3-(4-((1R,2S)-6-hydroxy-2-phenyl-1,2,3,4-tetrahydronaphthalen-1-yl)phenoxy)piperidine-1-carbonyl)cyclohexyl)-6,7-dihydropyrrolo[3,4-f]isoindole-1,3(2H,5H)-dione] | 10 to 100 nM
O=C1CCC(N2C(=O)c3cc4c(cc3C2=O)CN(C(=O)CN2CC3(CCN(c5ccc([C@@H]6c7ccc(O)cc7CC[C@@H]6c6ccccc6)cc5)CC3)C2)C4)C(=O)N1 (mixture of isomers) [Compound B17, 2-(2,6-dioxopiperidin-3-yl)-6-(2-(7-(4-((1R,2S)-6-hydroxy-2-phenyl-1,2,3,4-tetrahydronaphthalen-1-yl)phenyl)-2,7-diazaspiro[3.5]nonan-2-yl)acetyl)-6,7-dihydropyrrolo[3,4-f]isoindole-1,3(2H,5H)-dione] | 10 to 100 nM
O=C1CCC(N2C(=O)c3cc4c(cc3C2=O)CN(C(=O)CN2CCC3(CC2)CCN(c2ccc([C@@H]5c6ccc(O)cc6CC[C@@H]5c5ccccc5)cc2)CC3)C4)C(=O)N1 (mixture of isomers) [Compound B18, 2-(2,6-dioxopiperidin-3-yl)-6-(2-(9-(4-((1R,2S)-6-hydroxy-2-phenyl-1,2,3,4-tetrahydronaphthalen-1-yl)phenyl)-3,9-diazaspiro[5.5]undecan-3-yl)acetyl)-6,7-dihydropyrrolo[3,4-f]isoindole-1,3(2H,5H)-dione] | 10 to 100 nM
O=C1CCC(N2C(=O)c3cc4c(cc3C2=O)CN(C(=O)CN2CC3(CCN(c5ccc([C@@H]6c7ccc(O)cc7CC[C@@H]6c6ccc(F)cc6)cc5)CC3)C2)C4)C(=O)N1 (mixture of isomers) [Compound B19, 2-(2,6-dioxopiperidin-3-yl)-6-(2-(7-(4-((1R,2S)-2-(4-fluorophenyl)-6-hydroxy-1,2,3,4-tetrahydronaphthalen-1-yl)phenyl)-2,7-diazaspiro[3.5]nonan-2-yl)acetyl)-6,7-dihydropyrrolo[3,4-f]isoindole-1,3(2H,5H)-dione] | 10 to 100 nM
O=C1CCC(N2C(=O)c3cc4c(cc3C2=O)CN(CC(=O)N2CCC3(CC2)CCN(c2ccc([C@@H]5c6ccc(O)cc6CC[C@@H]5c5ccccc5)cc2)C3)C4)C(=O)N1 (mixture of isomers) [Compound B20, 2-(2,6-dioxopiperidin-3-yl)-6-(2-(2-(4-((1R,2S)-6-hydroxy-2-phenyl-1,2,3,4-tetrahydronaphthalen-1-yl)phenyl)-2,8-diazaspiro[4.5]decan-8-yl)-2-oxoethyl)-6,7-dihydropyrrolo[3,4-f]isoindole-1,3(2H,5H)-dione] | 10 to 100 nM
O=C1CCC(N2C(=O)c3cc4c(cc3C2=O)CN(C(=O)CN2CCC3(CCN(c5ccc([C@@H]6c7ccc(O)cc7CC[C@@H]6c6ccccc6)cc5)CC3)C2)C4)C(=O)N1 (mixture of isomers) [Compound B21, 2-(2,6-dioxopiperidin-3-yl)-6-(2-(8-(4-((1R,2S)-6-hydroxy-2-phenyl-1,2,3,4-tetrahydronaphthalen-1-yl)phenyl)-2,8-diazaspiro[4.5]decan-2-yl)acetyl)-6,7-dihydropyrrolo[3,4-f]isoindole-1,3(2H,5H)-dione] | > 100 nM
O=C1CCC(N2C(=O)c3cc4c(cc3C2=O)CN(C(=O)CN2CCC3(CC2)CCN(c2ccc([C@@H]5c6ccc(O)cc6CC[C@@H]5c5ccccc5)cc2)C3)C4)C(=O)N1 (mixture of isomers) [Compound B22, 2-(2,6-dioxopiperidin-3-yl)-6-(2-(2-(4-((1R,2S)-6-hydroxy-2-phenyl-1,2,3,4-tetrahydronaphthalen-1-yl)phenyl)-2,8-diazaspiro[4.5]decan-8-yl)acetyl)-6,7-dihydropyrrolo[3,4-f]isoindole-1,3(2H,5H)-dione] | > 100 nM
C[C@@H]1CC2(CCN(c3ccc([C@@H]4c5ccc(O)cc5CC[C@@H]4c4ccc(F)cc4)cc3)CC2)CN1C(=O)CN1Cc2cc3c(cc2C1)C(=O)N(C1CCC(=O)NC1=O)C3=O (mixture of isomers) [Compound B26, 2-(2,6-dioxopiperidin-3-yl)-6-(2-((R)-8-(4-((1R,2S)-2-(4-fluorophenyl)-6-hydroxy-1,2,3,4-tetrahydronaphthalen-1-yl)phenyl)-3-methyl-2,8-diazaspiro[4.5]decan-2-yl)-2-oxoethyl)-6,7-dihydropyrrolo[3,4-f]isoindole-1,3(2H,5H)-dione] | 10 to 100 nM
O=C1CCC(N2C(=O)c3cc4c(cc3C2=O)CN(C(=O)CN2CCC3(CC2)CN(c2ccc([C@@H]5c6ccc(O)cc6CC[C@@H]5c5ccccc5)cc2)C3)C4)C(=O)N1 (mixture of isomers) [Compound B29, 2-(2,6-dioxopiperidin-3-yl)-6-(2-(2-(4-((1R,2S)-6-hydroxy-2-phenyl-1,2,3,4-tetrahydronaphthalen-1-yl)phenyl)-2,7-diazaspiro[3.5]nonan-7-yl)acetyl)-6,7-dihydropyrrolo[3,4-f]isoindole-1,3(2H,5H)-dione] | > 100 nM
O=C1CCC(N2C(=O)c3cc4c(cc3C2=O)CN(C(=O)CN2CCC3(CC2)CCN(c2ccc([C@@H]5c6ccc(O)cc6CC[C@@H]5c5ccc(F)cc5)cc2)C3)C4)C(=O)N1 (mixture of isomers) [Compound B31, 2-(2,6-dioxopiperidin-3-yl)-6-(2-(2-(4-((1R,2S)-2-(4-fluorophenyl)-6-hydroxy-1,2,3,4-tetrahydronaphthalen-1-yl)phenyl)-2,8-diazaspiro[4.5]decan-8-yl)acetyl)-6,7-dihydropyrrolo[3,4-f]isoindole-1,3(2H,5H)-dione] | > 100 nM
